Like-named read-outs stand apart in the source and are kept apart here.
Tests used:
in vitro = conditions: human, CC50 nM in MT-4
Protocol: For the antiviral assay utilizing MT4 cells, 0.4 μL of […] test concentration of 3-fold serially diluted compound in DMSO was added to 40 μL of cell growth medium (RPMI 1640, 10% FBS, 1% penicilline/Streptomycine, 1% L-Glutamine, 1% HEPES) in each well of 384-well assay plates (10 concentrations) in quidruplicate.
1 mL aliquots of 2×10^6 MT4 cells are pre-infected for 1 and 3 hours respectively at 37° C. with 25 μL (MT4) or of either cell growth medium (mock-infected) or a fresh 1:250 dilution of an HIV-IIIb concentrated ABI stock (0.004 m.o.i. for MT4 cells). Infected and uninfected cells are diluted in cell growth medium and 35 μL of 2000 (for MT4) cells is added to each well of the assay plates.
Assay plates were then incubated in a 37° C. incubator. After 5 days of incubation, 25 μL of 2× concentrated CellTiter-Glo™ Reagent (catalog #G7573, Promega Biosciences, Inc., Madison, Wis.) was added to each well of the assay plate. Cell lysis was carried out by incubating at room temperature for 2-3 minutes, and then chemiluminescence was read using the Envision reader (PerkinElmer).

PXR = PXR (Homo sapiens (Human), UniProt O75469); assay: Human PXR activation assay (luciferase reporter gene assay, DPX2 cells); type: cell-based; conditions: human
Sequence of PXR (O75469 whole entry): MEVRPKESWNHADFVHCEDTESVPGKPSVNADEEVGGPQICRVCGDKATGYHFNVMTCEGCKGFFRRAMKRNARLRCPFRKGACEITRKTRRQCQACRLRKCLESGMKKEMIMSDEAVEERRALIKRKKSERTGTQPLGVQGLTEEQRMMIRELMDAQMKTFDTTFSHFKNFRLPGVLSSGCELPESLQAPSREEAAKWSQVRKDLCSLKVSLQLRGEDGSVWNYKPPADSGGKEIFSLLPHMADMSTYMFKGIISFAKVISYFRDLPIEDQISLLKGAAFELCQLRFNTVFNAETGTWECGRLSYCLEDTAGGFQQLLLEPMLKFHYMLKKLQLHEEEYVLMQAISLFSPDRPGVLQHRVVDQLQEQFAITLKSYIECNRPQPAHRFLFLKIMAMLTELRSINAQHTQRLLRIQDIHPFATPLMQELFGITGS
Protocol: A stably transformed tumor cell line (DPX2) was plated on 96-well microtiter plates. DPX2 cells harbor the human PXR gene (NR112) and a luciferase reporter gene linked to two promoters identified in the human CYP3A4 gene, namely XREM and PXRE. […] The number of viable cells was determined and the reporter gene activity was assessed. Positive control: […]

Structure (SMILES) | CC50 at 5 days (in vitro) | Emax at 24 h, 15 µM (PXR) | Emax at 24 h, 15 µM (PXR; 15 μM, relative to maximum fold induction by 10 or 20 μM rifampicin, DPX2 cells, 24 hours, read-out: % Emax at 15 μM)
C[C@@H]1C[C@H]2C[C@@H]1[C@@H]1Cn3cc(C(=O)NCc4c(F)cc(F)cc4F)c(=O)c(O)c3C(=O)N21 [Compound 84, (1S,2R,4S,12aR)-7-hydroxy-2-methyl-6,8-dioxo-N-(2,4,6-trifluorobenzyl)-1,2,3,4,6,8,12,12a-octahydro-1,4-methanodipyrido[1,2-a:1′,2′-d]pyrazine-9-carboxamide] | 9730 nM | 21% | 
O=C(NCc1ccc(F)cc1F)c1cn2c(c(O)c1=O)C(=O)N1C(C2)[C@H]2CC[C@@H]1C2 (stereo in doubt) [Compound 38, (1S,4R,12aR)-N-(2,4-difluorobenzyl)-7-hydroxy-6,8-dioxo-1,2,3,4,6,8,12,12a-octahydro-1,4-methanodipyrido[1,2-a:1′,2′-d]pyrazine-9-carboxamide] | 10200 nM |  | 7%
O=C(NC1(c2ccc(F)cc2F)CCCC1)c1cn2c(c(O)c1=O)C(=O)N1C(C2)O[C@H]2CC[C@@H]1C2 (stereo partly drawn) [Compound 33, (2S,5R)-N-(1-(2,4-difluorophenyl)cyclopentyl)-8-hydroxy-7,9-dioxo-2,3,4,5,7,9,13,13a-octahydro-2,5-methanopyrido[1′,2′:4,5]pyrazino[2,1-b][1,3]oxazepine-10-carboxamide] | 3970 nM | 17% | 
O=C(NCc1ccc(F)cc1F)c1cn2c(c(O)c1=O)C(=O)N1C(C2)[N@@]2CC[C@@H]1C2 (stereo partly drawn) [Compound 4, (1S,4R)-N-(2,4-difluorobenzyl)-7-hydroxy-6,8-dioxo-3,4,6,8,12,12a-hexahydro-2H-1,4-methanopyrido[1′,2′:4,5]pyrazino[1,2-a]pyrimidine-9-carboxamide] | 45800 nM | 3% | 
O=C(NCc1ccc(F)cc1Cl)c1cn2c(c(O)c1=O)C(=O)N1[C@H]3CC[C@H](C3)[C@@H]1C2 [Compound 68, (1R,4S,12aR)-N-(2-chloro-4-fluorobenzyl)-7-hydroxy-6,8-dioxo-1,2,3,4,6,8,12,12a-octahydro-1,4-methanodipyrido[1,2-a:1′,2′-d]pyrazine-9-carboxamide] | 4180 nM | 6% | 
O=C(NCc1cc(F)c(F)cc1F)c1cn2c(c(O)c1=O)C(=O)N1[C@H]3CC[C@H](C3)[C@@H]1C2 [Compound 79, (1R,4S,12aR)-7-hydroxy-6,8-dioxo-N-(2,4,5-trifluorobenzyl)-1,2,3,4,6,8,12,12a-octahydro-1,4-methanodipyrido[1,2-a:1′,2′-d]pyrazine-9-carboxamide] | 12100 nM | 0% | 
Cc1cccc(CNC(=O)c2cn3c(c(O)c2=O)C(=O)N2[C@H]4CC[C@H](C4)[C@@H]2C3)c1F [Compound 70, (1R,4S,12aR)-N-(2-fluoro-3-methylbenzyl)-7-hydroxy-6,8-dioxo-1,2,3,4,6,8,12,12a-octahydro-1,4-methanodipyrido[1,2-a:1′,2′-d]pyrazine-9-carboxamide] | 8410 nM | 10% | 
O=C(NCc1ccc(Cl)cc1F)c1cn2c(c(O)c1=O)C(=O)N1[C@H]3CC[C@H](C3)[C@@H]1C2 [Compound 92, (1R,4S,12aR)-N-(4-chloro-2-fluorobenzyl)-7-hydroxy-6,8-dioxo-1,2,3,4,6,8,12,12a-octahydro-1,4-methanodipyrido[1,2-a:1′,2′-d]pyrazine-9-carboxamide] | 4550 nM | 3% | 
O=C(NCc1ccc(F)cc1F)c1cn2c(c(O)c1=O)C(=O)N1C(C2)[N@]2CCC[C@H]1C2 (stereo partly drawn) [Compound 19, (1R,5S)-N-(2,4-difluorobenzyl)-8-hydroxy-7,9-dioxo-2,3,4,5,7,9, 13,13a-octahydro-1,5-methanopyrido[1′,2′:4,5]pyrazino[1,2-a][1,3]diazepine-10-carboxamide] | 38700 nM | 2% | 
O=C(NCc1cccc(Cl)c1)c1cn2c(c(O)c1=O)C(=O)N1[C@H]3CC[C@H](C3)[C@@H]1C2 [Compound 72, (1R,4S,12aR)-N-(3-chlorobenzyl)-7-hydroxy-6,8-dioxo-1,2,3,4,6,8,12,12a-octahydro-1,4-methanodipyrido[1,2-a:1′,2′-d]pyrazine-9-carboxamide] | 6260 nM | 4% | 
O=C(NC1(c2ccc(F)cc2F)CC1)c1cn2c(c(O)c1=O)C(=O)N1C(C2)O[C@H]2CCC[C@@H]1C2 (stereo partly drawn) [Compound 28, (2S,6R)-N-(1-(2,4-difluorophenyl)cyclopropyl)-9-hydroxy-8,10-dioxo-3,4,5,6,8,10,14,14a-octahydro-2H-2,6-methanopyrido[1′,2′:4,5]pyrazino[2,1-b][1,3]oxazocine-11-carboxamide] | 18700 nM | 6% | 
O=C(NCc1c(F)cc(F)cc1F)c1cn2c(c(O)c1=O)C(=O)N1[C@@H]3C[C@@H]([C@H](F)C3)[C@@H]1C2 [Compound 59, (1R,2R,4R,12aR)-2-fluoro-7-hydroxy-6,8-dioxo-N-(2,4,6-trifluorobenzyl)-1,2,3,4,6,8,12,12a-octahydro-1,4-methanodipyrido[1,2-a:1′,2′-d]pyrazine-9-carboxamide] | 22200 nM | 4% | 
O=C(NC1(c2ccc(F)cc2F)CC1)c1cn2c(c(O)c1=O)C(=O)N1C(C2)O[C@@H]2CCC[C@H]1C2 (stereo partly drawn) [Compound 29, (2R,6S)-N-(1-(2,4-difluorophenyl)cyclopropyl)-9-hydroxy-8,10-dioxo-3,4,5,6,8,10,14,14a-octahydro-2H-2,6-methanopyrido[1′,2′:4,5]pyrazino[2,1-b][1,3]oxazocine-11-carboxamide] | 9450 nM | 3% | 
O=C(NCc1ccc(F)c(Cl)c1)c1cn2c(c(O)c1=O)C(=O)N1[C@H]3CC[C@H](C3)[C@@H]1C2 [Compound 75, (1R,4S,12aR)-N-(3-chloro-4-fluorobenzyl)-7-hydroxy-6,8-dioxo-1,2,3,4,6,8,12,12a-octahydro-1,4-methanodipyrido[1,2-a:1′,2′-d]pyrazine-9-carboxamide] | 5290 nM | 0% | 
O=C(NCc1c(F)cccc1F)c1cn2c(c(O)c1=O)C(=O)N1[C@@H]3CC[C@@H](C3)O[C@H]1C2 [Compound 46, (13aS)-N-(2,6-difluorobenzyl)-8-hydroxy-7,9-dioxo-2,3,4,5,7,9,13,13a-octahydro-2,5-methanopyrido[1′,2′:4,5]pyrazino[2,1-b][1,3]oxazepine-10-carboxamide] | 19300 nM | 34% | 
C[C@@H](NC(=O)c1cn2c(c(O)c1=O)C(=O)N1[C@H]3CC[C@H](C3)[C@@H]1C2)c1ccc(F)cc1F [Compound 43, (12aR)-N—((R)-1-(2,4-difluorophenyl)ethyl)-7-hydroxy-6,8-dioxo-1,2,3,4,6,8,12,12a-octahydro-1,4-methanodipyrido[1,2-a:1′,2′-d]pyrazine-9-carboxamide] | 10300 nM | 18% | 
O=C(NCc1ccc(F)c(F)c1F)c1cn2c(c(O)c1=O)C(=O)N1[C@H]3CC[C@H](C3)[C@@H]1C2 [Compound 91, (1R,4S,12aR)-7-hydroxy-6,8-dioxo-N-(2,3,4-trifluorobenzyl)-1,2,3,4,6,8,12,12a-octahydro-1,4-methanodipyrido[1,2-a:1′,2′-d]pyrazine-9-carboxamide] | 7180 nM | 3% | 
O=C(NCc1ccc(F)c(Cl)c1F)c1cn2c(c(O)c1=O)C(=O)N1[C@H]3CC[C@H](C3)[C@@H]1C2 [Compound 69, (1R,4S,12aR)-N-(3-chloro-2,4-difluorobenzyl)-7-hydroxy-6,8-dioxo-1,2,3,4,6,8,12,12a-octahydro-1,4-methanodipyrido[1,2-a:1′,2′-d]pyrazine-9-carboxamide] | 4770 nM | 5% | 
O=C(NCc1cccc(Cl)c1F)c1cn2c(c(O)c1=O)C(=O)N1[C@H]3CC[C@H](C3)[C@@H]1C2 [Compound 90, (1R,4S,12aR)-N-(3-chloro-2-fluorobenzyl)-7-hydroxy-6,8-dioxo-1,2,3,4,6,8,12,12a-octahydro-1,4-methanodipyrido[1,2-a:1′,2′-d]pyrazine-9-carboxamide] | 8090 nM | 11% | 
O=C(NCc1cc(Cl)c(F)cc1F)c1cn2c(c(O)c1=O)C(=O)N1[C@H]3CC[C@H](C3)[C@@H]1C2 [Compound 80, (1R,4S,12aR)-N-(5-chloro-2,4-difluorobenzyl)-7-hydroxy-6,8-dioxo-1,2,3,4,6,8,12,12a-octahydro-1,4-methanodipyrido[1,2-a:1′,2′-d]pyrazine-9-carboxamide] | 5040 nM | 2% | 
O=C(NCc1ccc(F)c(F)c1)c1cn2c(c(O)c1=O)C(=O)N1[C@@H]3CC[C@@H](C3)O[C@H]1C2 [Compound 18, (2S,5R,13aS)-N-(3,4-difluorobenzyl)-8-hydroxy-7,9-dioxo-2,3,4,5,7,9,13,13a-octahydro-2,5-methanopyrido[1′,2′:4,5]pyrazino[2,1-b][1,3]oxazepine-10-carboxamide] | 10300 nM | 4% | 

From patent publication US9663528B2, “Substituted 1,2,3,4,6,8,12,12a-octahydro-1,4-methanodipyrido[1,2-a:1',2'-d]pyrazines and methods for treating viral infections” (priority 2012, dated 2017)
